For 35 molecules, Activity results are on record in ChEMBL document CHEMBL1136921, “Benzylguanidines and other galegine analogues inducing weight loss in mice” (J Med Chem, 2009).

Series [1] deals with Mus musculus. Kind of series: Antiobesity activity in lean normal BALB/c mouse assessed as change in average daily weight at 0.60 mmol/kg/day administered through diet for 7 days relative to time-matched control. The format is functional.
The test system of series [2] is Mus musculus. Description: Antiobesity activity in lean normal BALB/c mouse assessed as change in average daily food intake at 0.60 mmol/kg/day administered through diet for 7 days relative to time-matched control. The format is functional.
Series [3] has as its system Mus musculus. Kind of series: Toxicity in lean normal BALB/c mouse assessed as overt signs of behavioural changes at equimolar dose of 0.5 mmol/kg galegine administered daily through diet for 7 days. The format is organism-based. Particulars: in vivo, po, 168 h.
Series [4] relates to Mus musculus. Kind of series: Antidiabetic activity in lean normal BALB/c mouse assessed as effect on blood lactate level at equimolar dose of 0.5 mmol/kg galegine administered daily through diet for 7 days. Format: functional, organism-based.
For series [5], the system named is Mus musculus. Description: Antiobesity activity in lean normal BALB/c mouse assessed as change in average daily weight at equimolar dose of 0.5 mmol/kg galegine administered daily through diet for 7 days. The format is functional, organism-based.
Series [6] deals with Mus musculus. Kind of series: Antiobesity activity in lean normal BALB/c mouse assessed as change in average daily food intake at equimolar dose of 0.5 mmol/kg galegine administered daily through diet for 7 days. Format: functional, organism-based.
Series [7] deals with Mus musculus. Description: Hypoglycemic activity in lean normal BALB/c mouse assessed as blood glucose level at equimolar dose of 0.5 mmol/kg galegine administered daily through diet for 7 days. Format: functional, organism-based.
The test system of series [8] is Mus musculus. Kind of series: Hypoglycemic activity in lean normal BALB/c mouse assessed as blood glucose level at 0.52 mmol/kg/day administered through diet for 7 days relative to time-matched control. Format: functional.
Series [9] concerns Mus musculus. Description: Antiobesity activity in lean normal BALB/c mouse assessed as change in average daily food intake at 0.52 mmol/kg/day administered through diet for 7 days relative to time-matched control. The format is functional.
Series [10] relates to Mus musculus. Description: Antiobesity activity in lean normal BALB/c mouse assessed as change in average daily weight at 0.52 mmol/kg/day administered through diet for 7 days relative to time-matched control. The format is functional.
The subject of series [11] is Mus musculus. Description: Antiobesity activity in lean normal BALB/c mouse assessed as change in average daily food intake at 0.72 mmol/kg/day administered through diet for 7 days relative to time-matched control. Format: functional.
Series [12] in a line: Metabolic stability in ob/ob mouse liver microsomes assessed as oxidative hydroxylation at 50 uM after 45 mins by HPLC-MS analysis. The format is ADME, Microsome. The settings on record: 0.75 h.
Series [13] relates to Mus musculus. Description: Antiobesity activity in lean normal BALB/c mouse assessed as change in average daily weight at 0.72 mmol/kg/day administered through diet for 7 days relative to time-matched control. Format: functional.
For series [14], the system named is Mus musculus. Description: Hypoglycemic activity in lean normal BALB/c mouse assessed as blood glucose level at 0.72 mmol/kg/day administered through diet for 7 days relative to time-matched control. The format is functional.
Series [15] deals with Mus musculus. Description: Antiobesity activity in lean normal BALB/c mouse assessed as change in average daily food intake at 0.62 mmol/kg/day administered through diet for 7 days relative to time-matched control. Format: functional.
The subject of series [16] is Mus musculus. Kind of series: Antiobesity activity in lean normal BALB/c mouse assessed as change in average daily weight at 0.62 mmol/kg/day administered through diet for 7 days relative to time-matched control. The format is functional.
Series [17] has as its system Mus musculus. Description: Hypoglycemic activity in lean normal BALB/c mouse assessed as blood glucose level at 0.70 mmol/kg/day administered through diet for 7 days relative to time-matched control. The format is functional.
The subject of series [18] is Mus musculus. Kind of series: Antiobesity activity in lean normal BALB/c mouse assessed as change in average daily weight at 0.70 mmol/kg/day administered through diet for 7 days relative to time-matched control. Format: functional.
Series [19] has as its system Mus musculus. Description: Antiobesity activity in lean normal BALB/c mouse assessed as change in average daily food intake at 0.70 mmol/kg/day administered through diet for 7 days relative to time-matched control. The format is functional.
In series [20] the test system is Mus musculus. Description: Antiobesity activity in lean normal BALB/c mouse assessed as change in average daily food intake at 0.5 mmol/kg/day administered through diet for 7 days relative to time-matched control. The format is functional.
Series [21] deals with Mus musculus. Kind of series: Antiobesity activity in lean normal BALB/c mouse assessed as change in average daily weight at 0.5 mmol/kg/day administered through diet for 7 days relative to time-matched control. Format: functional.
In series [22] the test system is Mus musculus. Description: Hypoglycemic activity in lean normal BALB/c mouse assessed as blood glucose level at 0.5 mmol/kg/day administered through diet for 7 days relative to time-matched control. Format: functional.
Series [23] concerns Mus musculus. Kind of series: Antiobesity activity in lean normal BALB/c mouse assessed as change in average daily weight at 0.57 mmol/kg/day administered through diet for 7 days relative to time-matched control. Format: functional.
Series [24] relates to Mus musculus. Description: Antiobesity activity in lean normal BALB/c mouse assessed as change in average daily food intake at 0.57 mmol/kg/day administered through diet for 7 days relative to time-matched control. The format is functional.
Series [25] has as its system Mus musculus. Description: Hypoglycemic activity in lean normal BALB/c mouse assessed as blood glucose level at 0.57 mmol/kg/day administered through diet for 7 days relative to time-matched control. The format is functional.
For series [26], the system named is Mus musculus. Description: Antiobesity activity in lean normal BALB/c mouse assessed as change in average daily weight at 0.51 mmol/kg/day administered through diet for 7 days relative to time-matched control. The format is functional.
For series [27], the system named is Mus musculus. Description: Antiobesity activity in lean normal BALB/c mouse assessed as change in average daily food intake at 0.51 mmol/kg/day administered through diet for 7 days relative to time-matched control. The format is functional.
The subject of series [28] is Mus musculus. Kind of series: Hypoglycemic activity in lean normal BALB/c mouse assessed as blood glucose level at 0.51 mmol/kg/day administered through diet for 7 days relative to time-matched control. Format: functional.

Activity calls are given as the source filed them. The rule behind the calls is not given here.

As for `NC(N)=NCc1ccc2c(c1)OCO2`, the Activity in series [1] is reported as -2%; in [2], -18%; in series [3], “Non-toxic”.

Consider `CC(C)=CCNc1ccccn1`, for which the result in [4], in [5], in series [6] and in series [7] was inactive.

For the molecule `CC(C)=CCNC(=N)NC#N`, the result in series [4], in series [5], in series [6] and in series [7] was inactive.

For the molecule `N=C(N)NCC1CCCCC1`, the result in [4], in series [5], in series [6] and in [7] was inactive.

Take `CCOc1ccc(CNC(=N)N)cc1`: the outcome in series [4], in series [5], in series [6] and in series [7] was inactive.

In the case of `N=C(N)NCc1ccc(Br)cc1`, the Activity in [8] is 51%; in [9], -36.7%; in series [10], -23.3%; in [3] it was “Non-toxic”.

Turning to `N=C(N)NCc1cccs1`, the Activity in [11] is recorded as 5.6%; in series [12] it was “Stable”; in series [13], -2.3%; in series [14] it was 88%; in series [3], “Non-toxic”.

Regarding `N=C(N)NCC1CCCO1` (stereo not drawn), the result in series [4], in series [5], in series [6] and in [7] was inactive.

On to `CC(C)=CCNC1=NCCN1`, for which the result in [4], in series [5], in series [6] and in series [7] was inactive.

Regarding `[H]/N=C(/N)N/C(=N/[H])NCCc1ccccc1` [PHENFORMIN], the Activity in series [15] is -3.4%; in [12], “Unstable”; in series [16], -0.14%; in series [3] it was “Non-toxic”.

Regarding `COc1cccc(CNC(=N)N)c1OC`, the outcome in series [4], in series [5], in series [6] and in series [7] was inactive.

In the case of `COc1ccccc1CNC(=N)N`, the values for the Activity in series [1], in series [2] and in series [3] were -7%, -4.1% and “Non-toxic”, respectively.

Consider `COc1ccc(CNC(=N)N)cc1`, for which the outcome in series [4], in [5], in series [6] and in [7] was inactive.

For the molecule `N=C(N)NCc1ccccn1`, the result in [4], in [5], in series [6] and in [7] was inactive.

Regarding `CSCCNC(=N)N`, the outcome in series [4], in [5], in [6] and in [7] was inactive.

Take `CC(C)CCNC(=N)N`: the result in series [4], in [5], in series [6] and in [7] was inactive.

For `COc1ccc(CNC(=N)N)c(OC)c1`, the outcome in series [4], in series [5], in series [6] and in [7] was inactive.

In the case of `N=C(N)NCc1c(F)cccc1Cl`, the result in [4], in [5], in series [6] and in series [7] was inactive.

With `C=CCNC(=N)N`, the outcome in series [4], in series [5], in [6] and in series [7] was inactive.

Turning to `CC(C)=CCNc1ncccn1`, the outcome in [4], in series [5], in [6] and in [7] was inactive.

Turning to `N=C(N)NCCCCNC(=N)N`, the outcome in series [4], in [5], in series [6] and in series [7] was inactive.

As for `COc1cccc(CNC(=N)N)c1`, the result in series [4], in series [5], in series [6] and in [7] was inactive.

As to `N=C(N)N1CCc2ccccc2C1`, the outcome in [4], in series [5], in series [6] and in series [7] was inactive.

Consider `N=C(N)NCc1ccc(C(F)(F)F)cc1`, for which the Activity in series [17] is 75%; in series [18], -10.6%; in [3] it was “Non-toxic”; in series [19] it was -12.7%.

For `COc1ccc(CNC(=N)N)c(OC)c1OC`, the result in [4], in [5], in series [6] and in series [7] was inactive.

On to `N=C(N)NCc1ccc(O)cc1`, for which the result in series [4], in series [5], in [6] and in series [7] was inactive.

In the case of `COc1ccc(OC)c(CNC(=N)N)c1`, the result in series [4], in series [5], in series [6] and in series [7] was inactive.

`COc1ccc(CNC(=N)N)cc1OC`: the outcome in series [4], in series [5], in series [6] and in series [7] was inactive.

For `CC(C)=CCNC=N`, the result in [20], in series [21] and in series [22] was inactive.

Turning to `N=C(N)NCc1ccccc1Cl`, the Activity is -10.7% in series [23], -21.1% in series [24], 82% in [25] and “Non-toxic” in series [3].

For `Cc1ccc(CNC(=N)N)cc1`, the outcome in series [4], in series [5], in [6] and in series [7] was inactive.

As to `N=C(N)NCc1ccccc1C(F)(F)F`, the outcome in [4], in series [5], in [6] and in series [7] was inactive.

Regarding `CSCCCNC(=N)N`, the result in [4], in series [5], in series [6] and in series [7] was inactive.

In the case of `Cc1ccccc1CNC(=N)N`, the outcome in [4], in series [5], in series [6] and in series [7] was inactive.

As to `N=C(N)NCc1ccccc1Br`, the Activity was -6% in series [26], -17.7% in series [27], “Non-toxic” in series [3] and 84% in series [28].
